# In ChEMBL document CHEMBL5344417:
# How the values were obtained:
# [1] = biological target: T1, Peroxisome proliferator-activated receptor alpha (Homo sapiens) (UniProt Q07869); conditions: filed as agonist
# T1 sequence (whole entry): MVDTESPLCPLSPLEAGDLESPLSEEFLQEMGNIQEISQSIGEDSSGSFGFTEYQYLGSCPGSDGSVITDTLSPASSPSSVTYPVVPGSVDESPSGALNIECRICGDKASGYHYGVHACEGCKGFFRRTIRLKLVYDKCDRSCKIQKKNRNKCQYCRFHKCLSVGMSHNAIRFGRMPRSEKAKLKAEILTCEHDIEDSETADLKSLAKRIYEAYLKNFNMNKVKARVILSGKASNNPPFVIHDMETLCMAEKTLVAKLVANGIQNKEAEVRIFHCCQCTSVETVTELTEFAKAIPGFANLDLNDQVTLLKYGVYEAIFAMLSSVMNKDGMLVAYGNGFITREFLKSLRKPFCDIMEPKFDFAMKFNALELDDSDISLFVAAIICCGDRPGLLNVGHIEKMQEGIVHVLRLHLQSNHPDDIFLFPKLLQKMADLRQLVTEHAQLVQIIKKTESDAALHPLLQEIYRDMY
# Description: Binding affinity to recombinant PPAR alpha LBD (unknown origin) expressed in Escherichia coli BL21 assessed as melting temperature by differential scanning calorimetry analysis (Rvb = 47.45 degreeC)
# [2] = biological target: T2, Peroxisome proliferator-activated receptor gamma (Homo sapiens) (UniProt P37231); conditions: filed as agonist
# T2 sequence (whole entry): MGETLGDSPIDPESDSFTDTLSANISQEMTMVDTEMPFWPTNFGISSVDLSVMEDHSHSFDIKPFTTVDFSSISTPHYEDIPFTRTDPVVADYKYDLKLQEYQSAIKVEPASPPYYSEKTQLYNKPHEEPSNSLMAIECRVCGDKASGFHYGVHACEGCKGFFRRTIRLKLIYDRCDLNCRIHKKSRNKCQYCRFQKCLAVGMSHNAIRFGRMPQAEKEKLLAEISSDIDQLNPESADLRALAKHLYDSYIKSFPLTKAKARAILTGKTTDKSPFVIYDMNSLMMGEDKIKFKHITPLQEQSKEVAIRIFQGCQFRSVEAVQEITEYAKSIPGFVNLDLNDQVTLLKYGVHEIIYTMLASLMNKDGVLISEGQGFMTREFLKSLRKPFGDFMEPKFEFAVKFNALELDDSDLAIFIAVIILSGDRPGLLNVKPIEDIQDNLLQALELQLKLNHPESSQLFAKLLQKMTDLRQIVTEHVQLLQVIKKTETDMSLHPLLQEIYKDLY
Compound,Tm [1],Tm [2]
Cc1cccc(Nc2cc(Cl)nc(SCC(=O)O)n2)c1C,50 °C,
CN(CCOc1ccc(CC2SC(=O)NC2=O)cc1)c1ccccn1 (configuration not stated),,53 °C
